Results taken from PubChem BioAssay (NCI).
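Grown in 96-well plates, cells were treated for 48 hours with each compound at five concentrations. Insufficient inhibition: endpoint recorded as highest concentration tested. GI50 marks 50% less growth. TGI is the concentration that stops growth completely.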

Legend:
Assay in all cases: NCI tumour cell line growth inhibition, 48 h
SNB-75 CNS = test system: SNB-75 CNS
UACC-62 melanoma = test system: UACC-62 melanoma
UACC-257 melanoma = test system: UACC-257 melanoma
ACHN renal = test system: ACHN renal
UO-31 renal = test system: UO-31 renal
NCI-H460 lung = test system: NCI-H460 lung
SK-MEL-28 melanoma = test system: SK-MEL-28 melanoma
OVCAR-8 ovarian = test system: OVCAR-8 ovarian
SNB-19 CNS = test system: SNB-19 CNS
NCI-H23 lung = test system: NCI-H23 lung

| SMILES | GI50 (SNB-75 CNS) [µM] | TGI (SNB-75 CNS) [µM] | GI50 (UACC-62 melanoma) [µM] | TGI (UACC-62 melanoma) [µM] | GI50 (UACC-257 melanoma) [µM] | TGI (UACC-257 melanoma) [µM] | GI50 (ACHN renal) [µM] | TGI (ACHN renal) [µM] | GI50 (UO-31 renal) [µM] | TGI (UO-31 renal) [µM] | GI50 (NCI-H460 lung) [µM] | TGI (NCI-H460 lung) [µM] | GI50 (SK-MEL-28 melanoma) [µM] | TGI (SK-MEL-28 melanoma) [µM] | GI50 (OVCAR-8 ovarian) [µM] | TGI (OVCAR-8 ovarian) [µM] | GI50 (SNB-19 CNS) [µM] | TGI (SNB-19 CNS) [µM] | GI50 (NCI-H23 lung) [µM] | TGI (NCI-H23 lung) [µM] |
| --- | --- | --- | --- | --- | --- | --- | --- | --- | --- | --- | --- | --- | --- | --- | --- | --- | --- | --- | --- | --- |
| COc1ccc(OC)c(-c2nc3sccn3c2/C=C2/C(=O)Nc3ccc(Cl)cc32)c1 | 19.7 | 48.6 | 11.8 | 26.6 | 21.4 | 44.3 | 30.8 | > 100 | 23.6 | 81.8 | 26 | 65 | 20.6 | 39.8 | 34.4 | > 100 | 33.6 | > 100 | 21.4 | 51.4 |
| O=C1c2ccccc2C(=O)c2c1ccc(C(Br)Br)c2[N+](=O)[O-] | 14.1 | 28.7 | 1.31 | 3.1 | 1.74 | 3.28 | 1.53 | 2.86 | 1.52 | 2.93 | 1.89 | 5.09 | 2.63 | 6.56 | 1.95 | 4.35 | 1.93 | 4.42 | 1.6 | 4.34 |
| Cc1cccc(NC(=O)C(=O)C2C(=O)NC(=O)NC2=O)c1C |  | > 100 |  | > 100 |  | > 100 |  | > 100 |  | > 100 |  | > 100 |  | > 100 |  | > 100 |  | > 100 |  | > 100 |
| CC(=O)Oc1ccc(OC(C)=O)c2ccccc12 | 14 | 27.7 | 6.94 | 19.9 | 3.95 | 13.8 | 6.37 | 19.2 | 2.14 | 16.1 | 29.1 | > 100 | 13.3 | 26.5 | 6.66 | 22.7 | 30.5 | > 100 | 12.7 | 27.5 |
| C=C1CCC2C3(C)COC(c4ccc(NC(C)=O)cc4)OC3CCC2(C)C1C/C=C1/C(=O)OCC1O (stereo not given) | > 100 | > 100 | > 100 | > 100 | 6.26 | > 100 | 7.63 | > 100 | 5.43 | > 100 | 4.71 | > 100 | > 100 | > 100 | 7.76 | > 100 | > 100 | > 100 | 5.13 | > 100 |
| CN1/C(=C\C(I)C(I)C2=[N+](C)c3ccccc3C2(C)C)C(C)(C)c2ccccc21 (stereo not given) | 0.416 | 9.77 | 0.303 | 14.2 | 0.175 | 2.24 | 0.665 | 26.4 | 0.601 | 9.75 | 0.205 | 10.7 | 0.522 | 19.8 | 0.303 | 13.9 | 0.291 | 40.3 | 0.114 | 9.33 |
| O=C(c1ccccc1)C1C(C(=O)c2ccccc2)N1Cc1ccccc1 (stereo not given) |  | 57.1 |  | 70.8 |  | > 100 |  | > 100 |  | > 100 |  | > 100 |  | > 100 |  | > 100 |  | > 100 |  | > 100 |
| C#CCN1C(=O)/C(=c2\sc3n(c2=O)C2C(NN=3)N(CC)C(=O)N2CC)c2ccccc21 (stereo not given) | 0.25 | 0.997 | 0.453 | > 74.1 | 49.2 | > 100 | 0.65 | > 58.2 | 0.673 | > 100 | 0.439 | > 100 | 0.734 | > 100 | 1.07 | > 100 | 0.811 | > 100 | 1.51 | 37.2 |
| COC(=O)C(=O)C1(CCC(C)=O)c2ccccc2-c2ccccc21 |  | > 100 |  | > 100 |  | > 100 |  | > 100 |  | > 100 |  | > 100 |  | > 100 |  | > 100 |  | > 100 |  | > 100 |
| CC1(C)CCC[C@]23C(=O)O[C@](O)(C(=O)C4=C[C@@](C)(/C=C/CCCc5ccc6ccc7cccc8ccc5c6c78)CC[C@@]42O)[C@@H]13 | 0.149 | 0.284 | 0.176 | 0.343 | 0.224 | 0.586 | 0.156 | 0.29 | 0.156 | 0.291 | 0.18 | 0.374 | 0.144 | 0.317 | 0.25 | 1.15 | 0.188 | 0.414 | 0.178 | 0.376 |
